Laboratory results from patent publication US10800792B2, “Inhibitors of Bruton's tyrosine kinase and method of their use” (JANSSEN PHARMACEUTICA NV, priority 2015, dated 2020).

Target: unphosphorylated-BTK kinase domain (UP-BTK), GST-tagged human BTK (389-659aa) (Homo sapiens (Human), UniProt Q06187)
Test: BTK kinase Lanthascreen binding assay
Settings: pIC50 = negative log of the IC50 in molar, 60 minutes incubation, 50 nM Tracer 236; for IC50: read-out: BTK_I_binding pIC50 (converted)
Method in brief: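 Compound binding to the unphosphorylated kinase domain was monitored by displacement of a fluorescently labelled tracer in a Lanthascreen format. Potency is given as pIC50, the negative log of the molar IC50.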

Chain of unphosphorylated-BTK kinase domain (UP-BTK), GST-tagged human BTK (389-659aa) (Q06187 389-659): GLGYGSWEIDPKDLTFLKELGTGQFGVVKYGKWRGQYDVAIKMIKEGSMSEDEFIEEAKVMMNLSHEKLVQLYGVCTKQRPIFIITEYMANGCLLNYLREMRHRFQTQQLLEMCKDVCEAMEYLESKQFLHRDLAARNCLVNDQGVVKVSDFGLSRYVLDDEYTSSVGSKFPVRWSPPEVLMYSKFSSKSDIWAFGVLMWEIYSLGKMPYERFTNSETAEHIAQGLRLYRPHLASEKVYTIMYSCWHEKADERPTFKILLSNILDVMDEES

BTK_I_binding pIC50 | Structure (SMILES) | IC50 [nM]
7.4 | COCC(=O)N1CCC[C@@H](NC(=O)c2sc3nccc4c3c2NC(=O)N4c2ccc(Oc3ccccc3)cc2C)C1 [Example 95, (R)—N-(1-(2-Methoxyacetyl)piperidin-3-yl)-5-(2-methyl-4-phenoxyphenyl)-4-oxo-4,5-dihydro-3H-1-thia-3,5,8-triazaacenaphthylene-2-carboxamide] | –
6.9 | Cc1cc(Oc2ccccc2)ccc1N1C(=O)Nc2c(C(=O)NC3CCCCN(C#N)C3)sc3nccc1c23 (stereo not shown) [Example 97, N-(1-Cyanoazepan-3-yl)-5-(2-methyl-4-phenoxyphenyl)-4-oxo-4,5-dihydro-3H-1-thia-3,5,8-triazaacenaphthylene-2-carboxamide] | –
6.8 | Cc1cc(Oc2ccccc2)ccc1N1C(=O)Nc2c(C(=O)N[C@@H]3CCCN(C(C)C)C3)sc3nccc1c23 [Example 101, (R)—N-(1-Isopropylpiperidin-3-yl)-5-(2-methyl-4-phenoxyphenyl)-4-oxo-4,5-dihydro-3H-1-thia-3,5,8-triazaacenaphthylene-2-carboxamide] | –
6.7 | Cc1cc(Oc2ccccc2)ccc1N1C(=O)Nc2c(C(=O)NC3CCC(C)N(C)C3)sc3nccc1c23 (stereo not shown) [Example 103, N-(1,6-Dimethylpiperidin-3-yl)-5-(2-methyl-4-phenoxyphenyl)-4-oxo-4,5-dihydro-3H-1-thia-3,5,8-triazaacenaphthylene-2-carboxamide] | –
6.9 | C/C=C/C(=O)N1CCC[C@@H](NC(=O)c2sc3nccc4c3c2NC(=O)N4c2ccc(Oc3ccccc3)cc2C)C1 [Example 105, (R,E)-N-(1-(But-2-enoyl)piperidin-3-yl)-5-(2-methyl-4-phenoxyphenyl)-4-oxo-4,5-dihydro-3H-1-thia-3,5,8-triazaacenaphthylene-2-carboxamide] | –
7.3 | CNCCC(=O)N1CCC[C@@H](NC(=O)c2sc3nccc4c3c2NC(=O)N4c2ccc(Oc3ccccc3)cc2C)C1 [Example 106, (R)-5-(2-Methyl-4-phenoxyphenyl)-N-(1-(3-(methylamino)propanoyl)piperidin-3-yl)-4-oxo-4,5-dihydro-3H-1-thia-3,5,8-triazaacenaphthylene-2-carboxamide] | –
7.5 | Cc1cc(Oc2ccccc2)ccc1N1C(=O)Nc2c(C(=O)N[C@@H]3CCOC3)sc3nccc1c23 [Example 108, (R)-5-(2-Methyl-4-phenoxyphenyl)-4-oxo-N-(tetrahydrofuran-3-yl)-4,5-dihydro-3H-1-thia-3,5,8-triazaacenaphthylene-2-carboxamide] | –
7.2 | C=CC(=O)N1CC(NC(=O)c2sc3nccc4c3c2NC(=O)N4c2ccc(Oc3ccccc3)cc2C)C1 [Example 109, N-(1-Acryloylazetidin-3-yl)-5-(2-methyl-4-phenoxyphenyl)-4-oxo-4,5-dihydro-3H-1-thia-3,5,8-triazaacenaphthylene-2-carboxamide] | –
7.2 | C/C=C\C(=O)N1CCC[C@@H](NC(=O)c2sc3nccc4c3c2NC(=O)N4c2ccc(Oc3ccccc3)cc2C)C1 [Example 116, (R,Z)—N-(1-(But-2-enoyl)piperidin-3-yl)-5-(2-methyl-4-phenoxyphenyl)-4-oxo-4,5-dihydro-3H-1-thia-3,5,8-triazaacenaphthylene-2-carboxamide] | –
6.9 | Cc1cc(Oc2ccccc2)ccc1N1C(=O)Nc2c(C(=O)N[C@@H]3CCN(C)C3)sc3nccc1c23 [Example 117, (R)-5-(2-Methyl-4-phenoxyphenyl)-N-(1-methylpyrrolidin-3-yl)-4-oxo-4,5-dihydro-3H-1-thia-3,5,8-triazaacenaphthylene-2-carboxamide] | –

Second part, the compound before the results:

Structure (SMILES) | BTK_I_binding pIC50 | IC50 [nM]
COCCC(=O)N1C[C@@H](F)[C@@H](NC(=O)c2sc3nccc4c3c2NC(=O)N4c2ccc(Oc3ccccc3)cc2C)C1 [Example 94, N-((3S,4R)-4-Fluoro-1-(3-methoxypropanoyl)pyrrolidin-3-yl)-5-(2-methyl-4-phenoxyphenyl)-4-oxo-4,5-dihydro-3H-1-thia-3,5,8-triazaacenaphthylene-2-carboxamide] | 7.6 | –
Cc1cc(OC(C)C)ccc1N1C(=O)Nc2c(C(=O)N[C@@H]3CCCN(C(=O)/C(C#N)=C/C4CC4)C3)sc3nccc1c23 [Example 102, (R,E)-N-(1-(2-Cyano-3-cyclopropylacryloyl)piperidin-3-yl)-5-(4-isopropoxy-2-methylphenyl)-4-oxo-4,5-dihydro-3H-1-thia-3,5,8-triazaacenaphthylene-2-carboxamide] | 7.5 | –
Cc1cc(Oc2ccccc2)ccc1N1C(=O)Nc2c(C(=O)N[C@@H]3CCN(C(=O)CCS(C)(=O)=O)C3)sc3nccc1c23 [Example 104, (R)-5-(2-Methyl-4-phenoxyphenyl)-N-(1-(3-(methylsulfonyl)propanoyl)pyrrolidin-3-yl)-4-oxo-4,5-dihydro-3H-1-thia-3,5,8-triazaacenaphthylene-2-carboxamide] | 7.7 | –
O=C(N[C@@H]1CCCNC1)c1sc2nccc3c2c1NC(=O)N3c1ccc(Oc2ccccc2)cc1F [Example 107, (R)-5-(2-Fluoro-4-phenoxyphenyl)-4-oxo-N-(piperidin-3-yl)-4,5-dihydro-3H-1-thia-3,5,8-triazaacenaphthylene-2-carboxamide] | 7.5 | –
COc1ccc(N2C(=O)Nc3c(C(=O)N[C@@H]4CCCN(C(=O)C=[13CH2])C4)sc4nccc2c34)c(C)c1 [Example 110, (R)—N-(1-^13C-Acryloylpiperidin-3-yl)-5-(4-methoxy-2-methylphenyl)-4-oxo-4,5-dihydro-3H-1-thia-3,5,8-triazaacenaphthylene-2-carboxamide] | – | 158
COC[C@@H](N)C(=O)N1CCC[C@@H](NC(=O)c2sc3nccc4c3c2NC(=O)N4c2ccc(Oc3ccccc3)cc2C)C1 [Example 111, N—((R)-1-((R)-2-Amino-3-methoxypropanoyl)piperidin-3-yl)-5-(2-methyl-4-phenoxyphenyl)-4-oxo-4,5-dihydro-3H-1-thia-3,5,8-triazaacenaphthylene-2-carboxamide] | – | 63.1
Cc1c(N2C(=O)Nc3c(C(=O)N[C@@H]4CCCN(C(=O)CCS(C)(=O)=O)C4)sc4nccc2c34)ccc(Oc2ccccc2)c1F [Example 113, (R)-5-(3-Fluoro-2-methyl-4-phenoxyphenyl)-N-(1-(3-(methylsulfonyl)propanoyl)piperidin-3-yl)-4-oxo-4,5-dihydro-3H-1-thia-3,5,8-triazaacenaphthylene-2-carboxamide] | 7.3 | –
Cc1c(N2C(=O)Nc3c(C(=O)N[C@@H]4CCCN(C(=O)CO)C4)sc4nccc2c34)ccc(Oc2ccccc2)c1F [Example 114, (R)-5-(3-Fluoro-2-methyl-4-phenoxyphenyl)-N-(1-(2-hydroxyacetyl)piperidin-3-yl)-4-oxo-4,5-dihydro-3H-1-thia-3,5,8-triazaacenaphthylene-2-carboxamide] | 7.3 | –
COCC(=O)N1CCC[C@@H](NC(=O)c2sc3nccc4c3c2NC(=O)N4c2ccc(Oc3ccccc3)c(F)c2C)C1 [Example 115, (R)-5-(3-Fluoro-2-methyl-4-phenoxyphenyl)-N-(1-(2-methoxyacetyl)piperidin-3-yl)-4-oxo-4,5-dihydro-3H-1-thia-3,5,8-triazaacenaphthylene-2-carboxamide] | 7.4 | –
